Measured values published in US7507421B2, “Hydroxycitric acid salt composition and method of making” (Unibar Corporation, priority 2002, dated 2009).

Key:
[1] = Accelerated storage study of aqueous solution; format: physicochemical; conditions: 5 g in 100 ml de-ionized sterile water, accelerated storage study chamber, 2 months
Description: 50 g equivalent of the hydroxy citric acid—potassium salt solution from Example 2 was taken into a glass beaker fitted with a stirring arrangement. To this solution, 43 g of the dried calcium salt from Example 1 was added and the mixture was stirred to yield a clear solution. The resultant solution was spray dried to yield a salt of hydroxycitric acid with the following analysis: potassium content 11% to 18%, calcium content 5% to 12%, structural moisture 3% to 5% and hydroxycitric acid content 70% to 76%. The sodium content was less than 0.5% and lactone less than 0.5%. The combined salt has a solubility of 5 g in 100 mL of deionized water at room temperature. This salt composition is tasteless and white in color. A solution of 5 g in 100 ml of de-ionized sterile water was subjected to an accelerated storage study chamber for 2 months.

Solubility in water = format: physicochemical; conditions: deionized water at room temperature
Description: The resultant solution was spray dried to yield a salt of hydroxycitric acid with the following analysis: potassium content 11% to 18%, calcium content 5% to 12%, structural moisture 3% to 5% and hydroxycitric acid content 70% to 76%. The sodium content was less than 0.5% and lactone less than 0.5%. […] This salt composition is tasteless and white in color. A solution of 5 g in 100 ml of de-ionized sterile water was subjected to an accelerated storage study chamber for 2 months.

adult female Wistar rats [2] = experiment: Acute Oral Toxicity (OECD Test Guideline 425), LD50; format: in vivo; parameters: key to Short-term Result / Long-term Result: X = Died; ◯ = Survived; conditions: for LD50: oral, female Wistar rats
Description: A representative lot of powder obtained as described above is a pure, stable calcium potassium salt of hydroxycitric acid having a proximate analysis of 70 to 75% hydroxycitric acid, 7.5% to 9.5% calcium, 12 to 15% potassium and 3 to 5% structural moisture. The sodium content is less than 0.5%, and HCA lactone content is less than 0.5%. An animal toxicity study was conducted on the product to establish its LD50.
Doses were selected in accordance with the Acute Oral Toxicity (OECD Test Guideline 425) Statistical Program as follows: 175, 550, 1750, 5000 mg/kg of body weight in adult female Wistar rats.

adult female Wistar rats [3] = experiment: as above; format: in vivo; parameters: key: X = Died; ◯ = Survived; conditions: dose 2000 mg/kg, single animal
[4] = dose 5000 mg/kg, one line per animal

Combined Potassium-Calcium Salts of Hydroxycitric Acid [Example 3]
clarity of solution after storage [1]: retained its clarity
precipitation of salt after storage of solution [1]: did not precipitate out
solubility (Solubility in water): 5 g in 100 mL
Died (long-term, number of animals) (adult female Wistar rats [2]; All Doses, total 6): 0
Survived (long-term, number of animals) (adult female Wistar rats [2]; All Doses, total 6): 6
Long-term Result (adult female Wistar rats [2]; dose 175 mg/kg, single animal): ◯
Short-term Result (adult female Wistar rats [2]; dose 175 mg/kg, single animal): ◯
Died (long-term, number of animals) (adult female Wistar rats [2]; dose 175 mg/kg, total 1): 0
Survived (long-term, number of animals) (adult female Wistar rats [2]; dose 175 mg/kg, total 1): 1
Long-term Result (adult female Wistar rats [2]; dose 550 mg/kg, single animal): ◯
Short-term Result (adult female Wistar rats [2]; dose 550 mg/kg, single animal): ◯
Died (long-term, number of animals) (adult female Wistar rats [2]; dose 550 mg/kg, total 1): 0
Survived (long-term, number of animals) (adult female Wistar rats [2]; dose 550 mg/kg, total 1): 1
Died (long-term, number of animals) (adult female Wistar rats [2]; dose 2000 mg/kg, total 1): 0
Survived (long-term, number of animals) (adult female Wistar rats [2]; dose 2000 mg/kg, total 1): 1
Long-term Result (adult female Wistar rats [2]; [4]): ◯
Short-term Result (adult female Wistar rats [2]; [4]): ◯
Died (long-term, number of animals) (adult female Wistar rats [2]; dose 5000 mg/kg, total 3): 0
Survived (long-term, number of animals) (adult female Wistar rats [2]; dose 5000 mg/kg, total 3): 3
LD50 (adult female Wistar rats [2]): more than 5 gm/kg
LD50 (adult female Wistar rats [2]; conclusion of Table 8): Conclusion: LD50 of a sample of the Test Compound was found to be greater than 5000 mg/kg.
Long-term Result (adult female Wistar rats [3]): ◯
Short-term Result (adult female Wistar rats [3]): ◯
